In the NIST ThermoML archive (doi:10.1016/j.jct.2018.08.013):
Values joined by “and” are separate entries in the source; they are usually repeats but may differ in a detail not shown here. Identical values can stand only once.

Assay: specific heat capacity at constant pressure; xn = mol fraction of the nth substance listed
Settings: 100 kPa, Crystal of intercomponent compound 1, x2 = 0.477

[Se] [selenium] + [In]
Settings | specific heat capacity
117.9 K, relaxation calorimetry | 215.3 J/K/kg
117.98 K, relaxation calorimetry | 213.08 J/K/kg
121.94 K, relaxation calorimetry | 217.67 J/K/kg
121.97 K, relaxation calorimetry | 216.38 J/K/kg
125.98 K, relaxation calorimetry | 218.34 J/K/kg and 218.39 J/K/kg
130 K, relaxation calorimetry | 220.35 J/K/kg
130.01 K, relaxation calorimetry | 220.87 J/K/kg
133.92 K, relaxation calorimetry | 223.14 J/K/kg
134.04 K, relaxation calorimetry | 219.79 J/K/kg
138.04 K, relaxation calorimetry | 223.76 J/K/kg
138.07 K, relaxation calorimetry | 223.97 J/K/kg
141.97 K, relaxation calorimetry | 225.82 J/K/kg
142.1 K, relaxation calorimetry | 222.52 J/K/kg
146.07 K, relaxation calorimetry | 227.01 J/K/kg
146.14 K, relaxation calorimetry | 226.7 J/K/kg
150.02 K, relaxation calorimetry | 228.71 J/K/kg
150.14 K, relaxation calorimetry | 225.72 J/K/kg
154.13 K, relaxation calorimetry | 230.11 J/K/kg
154.16 K, relaxation calorimetry | 229.02 J/K/kg
162.19 K, relaxation calorimetry | 232.33 J/K/kg
162.21 K, relaxation calorimetry | 231.34 J/K/kg
170.26 K, relaxation calorimetry | 233.51 J/K/kg
170.28 K, relaxation calorimetry | 234.13 J/K/kg
178.32 K, relaxation calorimetry | 235.16 J/K/kg
178.34 K, relaxation calorimetry | 235.63 J/K/kg
186.37 K, relaxation calorimetry | 236.76 J/K/kg
186.4 K, relaxation calorimetry | 237.23 J/K/kg
194.4 K, relaxation calorimetry | 238 J/K/kg
194.45 K, relaxation calorimetry | 238.31 J/K/kg
202.42 K, relaxation calorimetry | 239.96 J/K/kg
202.5 K, relaxation calorimetry | 239.65 J/K/kg
210.44 K, relaxation calorimetry | 241.2 J/K/kg
210.53 K, relaxation calorimetry | 241.05 J/K/kg
218.46 K, relaxation calorimetry | 241.51 J/K/kg
218.55 K, relaxation calorimetry | 241.2 J/K/kg
226.5 K, relaxation calorimetry | 242.85 J/K/kg
226.59 K, relaxation calorimetry | 242.65 J/K/kg
234.52 K, relaxation calorimetry | 243.63 J/K/kg
234.63 K, relaxation calorimetry | 243.37 J/K/kg
242.56 K, relaxation calorimetry | 244.4 J/K/kg
242.67 K, relaxation calorimetry | 244.04 J/K/kg
250.6 K, relaxation calorimetry | 245.28 J/K/kg
250.71 K, relaxation calorimetry | 245.12 J/K/kg
255.57 K, relaxation calorimetry | 245.59 J/K/kg
255.58 K, relaxation calorimetry | 246.52 J/K/kg
258.63 K, relaxation calorimetry | 245.95 J/K/kg
258.74 K, relaxation calorimetry | 245.79 J/K/kg
264.04 K, relaxation calorimetry | 247.24 J/K/kg
264.08 K, relaxation calorimetry | 246.1 J/K/kg
265.74 K, Extra sensitive DSC | 248.37 J/K/kg
266.66 K, relaxation calorimetry | 246.62 J/K/kg
266.77 K, relaxation calorimetry | 246.57 J/K/kg
270 K, Extra sensitive DSC | 248.48 J/K/kg
272.24 K, relaxation calorimetry | 248.48 J/K/kg
272.34 K, relaxation calorimetry | 248.43 J/K/kg
274.69 K, relaxation calorimetry | 247.7 J/K/kg
274.81 K, relaxation calorimetry | 247.7 J/K/kg
275 K, Extra sensitive DSC | 248.79 J/K/kg
280 K, Extra sensitive DSC | 249.1 J/K/kg
280.72 K, relaxation calorimetry | 249.15 J/K/kg
280.84 K, relaxation calorimetry | 248.06 J/K/kg
282.72 K, relaxation calorimetry | 248.48 J/K/kg
282.83 K, relaxation calorimetry | 248.37 J/K/kg
285 K, Extra sensitive DSC | 249.51 J/K/kg
288.98 K, relaxation calorimetry | 249.72 J/K/kg
289.06 K, relaxation calorimetry | 248.53 J/K/kg
290 K, Extra sensitive DSC | 249.92 J/K/kg
290.72 K, relaxation calorimetry | 248.79 J/K/kg
290.85 K, relaxation calorimetry | 248.94 J/K/kg
294.72 K, relaxation calorimetry | 248.58 J/K/kg
294.84 K, relaxation calorimetry | 249.25 J/K/kg
295 K, Extra sensitive DSC | 250.03 J/K/kg
297.48 K, relaxation calorimetry | 249.25 J/K/kg
297.56 K, relaxation calorimetry | 248.74 J/K/kg
298.75 K, relaxation calorimetry | 248.74 J/K/kg
298.86 K, relaxation calorimetry | 250.59 J/K/kg
300 K, Extra sensitive DSC | 250.18 J/K/kg
303.85 K, relaxation calorimetry | 252.19 J/K/kg
303.86 K, relaxation calorimetry | 252.14 J/K/kg
305 K, Extra sensitive DSC | 250.39 J/K/kg
305.75 K, relaxation calorimetry | 251.52 J/K/kg
305.8 K, relaxation calorimetry | 251.11 J/K/kg
306.87 K, relaxation calorimetry | 252.97 J/K/kg and 252.76 J/K/kg
310 K, Extra sensitive DSC | 251.42 J/K/kg
315 K, Extra sensitive DSC | 252.09 J/K/kg
320 K, Extra sensitive DSC | 251.78 J/K/kg
325 K, Extra sensitive DSC | 252.3 J/K/kg
330 K, Extra sensitive DSC | 253.12 J/K/kg
335 K, Extra sensitive DSC | 254.52 J/K/kg
340 K, Extra sensitive DSC | 254.88 J/K/kg
345 K, Extra sensitive DSC | 255.7 J/K/kg
350 K, Extra sensitive DSC | 256.89 J/K/kg
355 K, Extra sensitive DSC | 257.82 J/K/kg
357.87 K, Extra sensitive DSC | 258.59 J/K/kg
